Assay results taken from US20260115314A1, “PREVENTION AND/OR TREATMENT OF CARDIAC DAMAGE” (priority 2022, published 2026).
Where no end group is shown, it is not given here.

Key:
[1] = test system: mouse hearts subjected to IR; assay: Hematoxylin/Eosin and Masson trichrome staining of mouse heart sections after IR; type: in vivo, mice; conditions: by day 7 after IR
Source text: FIG. 4. Hematoxylin and Eosin staining of mouse hearts. Heart sections of mice subjected to IR and injected with NIL10 or NIL10SC and collected by days 3 (A) or 7 (B) after IR. N=10 mice/group. From left to right: 2×, 20×, 40×. *P<0.05 D3; **P<0.01D7.
FIG. 5. NIL10 reduce heart fibrosis in response to IR. A. Representative immunoblot of MMP9 from healthy (H) or necrotic (N) areas of mouse hearts after 7 days of IR and injected with NIL10 or NIL10SC. N=10 mice/group. Mean±SD. *P<0.001 NIL10 vs NIL10SC necrotic areas. B. Masson Trichrome staining of heart sections from mice injected with NIL10 or NIL10SC, after 3- or 7-days post IR (N=10 mice/group). *P<0.05 D3; **P<0.03 D7.
(§1) 20 male twelve-week-old wild type, IL10 knock-out and IL10RA knock-out mice C57/BL6 were anesthetized by inhaled 3% sevoflurane and oxygen with a flow rate of 0.4 L/min until loss of righting reflex. Then, endotracheal intubation was perform using an intubation cannula in order to carry out artificial ventilation (tidal volume: 260 μL/stroke, ventilation rate: 130 strokes per minute). The fourth left intercostal space was opened and widened using chest mice retractors. Left ventricle was exposed and LAD was occluded for 30 min close by using a 6-0 silk suture and 1 mm tube. […]
Heart morphology was visualized by Hematoxylin/Eosin staining and collagen deposition was detected by Masson's trichrome staining in mice and pigs.

pigs subjected to IR = assay: Evans Blue/TTC staining of necrotic area in pig hearts after IR; type: in vivo; conditions: 1 mg/kg, after 7 days of IR, EvansBlue/TTC
Source text: FIG. 6. NIL10 induces cardiac protection in pigs subjected to IR. A. Evans blue/TTC staining (see methods for details) of pig heart sections (from apex to base) after 7 days of IR, showing healthy tissue (blue), the area at risk (red) and the necrotic areas (white). B. Measurement of necrotic areas of the hearts, represented as a percentage respect to the area at risk (Mean±SD. *P<0.001 NIL10 vs NIL10SC, at day 7 post IR). C. Left ventricle ejection fraction of hearts from pigs injected with NIL10 or NIL10SC after 7 days of IR (Mean±SD. *P<0.001 NIL10 vs NIL10SC). D. Hematoxylin and Eosin staining of healthy and necrotic heart sections from pigs injected with NIL10 or NIL10SC after 7 days of IR. E. Masson Trichrome staining of the same hearts as in D. (N=10 pigs/group).
20 male Yorkshire pigs (30±4 kg) were housed 1 week preceding the surgery to avoid unease or stress associated with the new environment. Prior to the surgical intervention, animals were anesthetized with intramuscular ketamine 10 mg/kg and midazolam 0.5 mg/kg.
Anesthesia was induced by inhaled sevoflurane and maintained with continuous infusion of propofol 2 mL/kg/h, fentanyl 50 μg/kg/h, and diazepam 10 μg/kg/h. […]

IL-10R = biological target: T1, IL-10R (Mus musculus, UniProt Q61727); assay: Confocal microscopy colocalization of nanoparticles with IL-10R in RAW 264.7 macrophages; type: binding; conditions: RAW 264.7 cells, rhodamine nanoparticle vs FITC anti-IL-10R
T1 construct: endogenous in cells; host or cells: RAW 264.7 macrophages
T1 sequence (Q61727 17-575): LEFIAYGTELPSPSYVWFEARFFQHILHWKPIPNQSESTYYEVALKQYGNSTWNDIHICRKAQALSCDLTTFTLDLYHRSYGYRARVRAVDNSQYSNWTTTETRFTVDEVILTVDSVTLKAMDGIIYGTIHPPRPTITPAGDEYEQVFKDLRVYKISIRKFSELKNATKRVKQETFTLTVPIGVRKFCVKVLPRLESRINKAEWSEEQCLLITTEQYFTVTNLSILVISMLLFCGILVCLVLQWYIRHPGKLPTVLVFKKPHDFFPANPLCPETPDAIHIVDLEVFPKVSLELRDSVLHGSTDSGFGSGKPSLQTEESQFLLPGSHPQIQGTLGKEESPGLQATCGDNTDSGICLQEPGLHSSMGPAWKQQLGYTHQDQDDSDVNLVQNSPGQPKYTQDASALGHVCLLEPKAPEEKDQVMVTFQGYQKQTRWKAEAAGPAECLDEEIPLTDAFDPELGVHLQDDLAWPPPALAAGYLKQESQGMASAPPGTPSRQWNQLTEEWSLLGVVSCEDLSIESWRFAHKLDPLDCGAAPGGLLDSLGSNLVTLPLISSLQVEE
Method: FIG. 1. NIL10 binds to IL-10R in RAW 264.7 cells. A. Nanoparticle composition of NIL10 and NIL10SC. B. Z-potential, longitudinal and transversal relaxivities of NIL10 and NIL10SC nanoparticles. C. Bright field and confocal microscopy sections of RAW 264.7 macrophages, detecting rhodamine (red) containing NIL10 nanoparticles. D,E Colocalization of NIL10 (D) (rhodamine, red) or NIL10SC (E) with IL-10R (FICT, green) in confocal microscopy sections of RAW 264.7 cells incubated with NIL10 and anti-IL-10R specific antibody. Merged panel show co-localization of both signals. Nuclei were stained with Hoechst. Right panel: colocalization analysis with Image J co-localization plugin software, in which white dots correspond to co-localization (N=3).
To study the specificity of nanoparticles, we first incubated NIL10 (FIG. 1A, B) in RAW 264.7 macrophages, detecting rhodamine-containing nanoparticles by confocal microscopy (FIG. 1C).

[2] = test system: M2 CD68+/CD206+ macrophages; assay: Flow cytometry of M2 macrophage populations in mouse hearts after IR; type: in vivo, mice; conditions: cell extracts from necrotic areas of mouse hearts, 3 and 7 days of IR
Source text: FIG. 7. NIL10 induces M2 macrophage polarization in the hearts of mice subjected to IR. A. Flow cytometry analysis of macrophage populations in mouse hearts after 3 and 7 days of IR. The percentage of M2 CD68+/CD206+ population were selected from the necrotic and at-risk areas of the hearts. B. Gating strategy used to identify macrophage-cell subsets in the health and infarcted mouse heart. A sequential getting strategy was first used to identify M2 population expressing specific macrophage marker CD68, followed by the identification of the population with overlapping expression patterns (CD68/CD206) (N=10 mice/group). Differences between groups were compared using one-way ANOVA. **P<0.01. ***P<0.001. ****P<0.0001.
Whole mouse hearts were mashed in complete DMEM (10% FBS, penicillin/streptomycin) through a 100-μm cell strainer. ACK Lysing Buffer was added to the single-cell suspension and spun down at 350 g for 5 minutes. The ACK was washed out with 50 mL of washing buffer (1% FBS), and cells were incubated with 1:100 anti-EMMPRIN, anti-CD68 and anti-CD206 antibodies. All flow cytometry samples were assayed in a MACSQuant Analyzer Flow Cytometer and analyzed with the Graphpad Prism software package.

mice subjected to IR = assay: LVEF by echocardiography in wild type mice subjected to IR; type: in vivo; conditions: 1 mg/kg 24 hours after IR, value NIL10 is compared against, day not given
Source text: FIG. 3. NIL10 induces cardiac protection in mice subjected to IR. A. Outline of the proceedings performed. B. Representative electrocardiogram, showing ST-elevation after LAD occlusion. C. Left ventricle ejection fraction (LVEF) of wild type mouse hearts at the times indicated after IR and injected with NIL10 or NIL10SC as in A. N=10 mice/group. Results expressed as mean±SD. *P<0.03 NIL10 vs NIL10SC day 7. #P<0.05 NIL10 vs NIL10SC day 3. D. LVEF in IL-10 knockout mice. N=10 mice/group. Results expressed as mean±SD. *P<0.01 NIL10 vs NIL10SC day 7. #P<0.05 NIL10 vs NIL10SC day 3. E. LVEF in IL-10 receptor knockout mice. N=10 mice/group. Results expressed as mean±SD.
as §1, with “tube. Reperfusion was performed by ligation release. After the procedure, the chest was closed, negative pressure restored, and the skin sutured.” for “tube.”

[3] = test system: inducible nitric oxide synthase (iNOS); assay: Immunoblot of iNOS in LPS-stimulated RAW 264.7 macrophages; type: cell-based; conditions: NIL10 plus STATTIC
Method: (§2) A. Confocal microscopy detection of NF-κB (p65) in RAW 264.7 cells stimulated with 500 μM LPS or in combination with NIL10. Nuclei were stained with DAPI. […] (N=3, results expressed as Mean±SD. *P<0.05 LPS/NIL10 vs LPS/NIL10SC). […] Confocal microscopy detection as in A, in which STATTIC, a pharmacological inhibitor of STAT3 was incubated. Arrows point nuclear or cytoplasmic localization of p65. Lower panels: immunoblot detection of iNOS in cells as in C. (N=3, results expressed as Mean±SD. *P<0.03 LPS vs LPS/NIL10 **P<0.05 LPS/STATTIC vs LPS/NIL10SC/STATTIC. ***P<0.001 NIL10/STATIC vs LPS/NIL10/STATIC).
(§3) The expression of the readout inducible nitric oxide synthase (iNOS) by pro-inflammatory signals was also assayed.

NF-κB = NF-κB (p65) nuclear translocation in LPS-stimulated RAW 264.7 macrophages, confocal microscopy; type: cell-based; conditions: RAW 264.7 cells, NIL10, co-incubated with 5 μM STATTIC
Method: as §2, §3

| Compound | extension of fibrosis (Masson Trichrome) [1] | necrotic area (pigs subjected to IR) | Colocalization with the IL-10R (IL-10R) | presence of M2-resolving macrophages [2] | LVEF (comparator value) (mice subjected to IR) | NIL10 inhibition of iNOS expression in the presence of STATTIC [3] | NIL10-induced cytoplasmic localization of NF-κB (NF-κB) |
| --- | --- | --- | --- | --- | --- | --- | --- |
| NIL10SC: nanoparticle conjugated with the same peptide in a scrambled orientation (CANYRMITKM); control, does not bind IL10R (also: conjugated to nanoparticle (site not given here)) | fibrotic lesions were widespread | 55±7.34 percentage respect to the area | no binding | takes 7 days to detect a similar effect | 41.5%±4.33 | – | – |
| O=[N+]([O-])c1ccc2c(c1)S(=O)(=O)C=C2 [STATTIC] | – | – | – | – | – | reversed | prevented |
